According to patent US9623021B2, “Nuclear receptor binding agents” (GTX, Inc., priority 2007, dated 2017):

What was measured:
[1] = target: ERα ligand binding domain (Homo sapiens (Human), UniProt P03372); experiment: Competitive [3H]-estradiol radioligand binding, ERα (Example 21)
[2] = target: ER-α (Rattus norvegicus (Rat), UniProt P06211); format: cell-based; details: 100 nM NRBA compared to 1 nM estradiol
In short: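 COS or 293 cells in phenol red-free medium with charcoal-stripped FBS, transfected with a 2×ERE firefly luciferase reporter, CMV-Renilla control and rat-cloned receptor. Compounds, estrogen or DHT added 24 h post transfection, alone or combined; firefly and Renilla luciferase read 48 h after transfection.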

[3] = system: high fat diet fed obese mice; experiment: High fat diet induced obesity model, treatment study (study 3); format: in vivo, C57BL6 male mice; details: high fat diet 6 weeks, then 30 mg/kg/day s.c.
Description: For the treatment obesity study (where the animals were fed with high fat diet for six weeks prior to beginning drug treatment for 18 weeks), MRI scans were performed at weeks 0, 6, 12, 18 and 24.
As the first two studies were designed to prevent obesity (i.e. animals were fed with a high fat diet and treated simultaneously), a subsequent study was conducted to evaluate the ability of 12u to affect body composition in mice that were already fed with the high fat diet and were obese. Mice were divided into three groups with one group fed with normal diet (control) and the other two groups fed with the high fat diet for 6 weeks. […] All the animals were maintained in their respective diets during the entire course of the study.

[4] = system: ovariectomized mice; experiment: Ovariectomy-induced obesity model (postmenopausal obesity); format: in vivo, female C57BL6 mice; details: OVX mice
Description: For the ovariectomy-induced obesity model, 6 week old female C57BL6 mice were sham operated or ovariectomized and the study was carried out for 9 weeks as indicated above.
Since it was shown that β-SERMs affected body composition in an animal model of high fat diet-induced obesity, they might also be effective in an animal model of postmenopausal obesity.

[5] = system: PPAR-γ; experiment: PPAR-γ transactivation (PPRE-LUC) in HEK-293 cells co-transfected with ER-β; format: cell-based; details: FIG. 12A left panel
Description: FIG. 12 depict the effect of ER-β ligand on PPAR-γ function through ligand binding domain (LBD). (A). HEK-293 cells were transfected with 0.25 μg PPRE-LUC, 5 ng CMV-renilla LUC and the indicated receptors (PPAR-γ and ER-β for the left panel and PPAR-α and ER-β for the right panel). The cells were treated 24 hrs after transfection with the indicated ligands and harvested 48 hrs after transfection and firefly luciferase activity was measured and normalized to renilla luciferase. (B). H475 in ER-β LBD is important for its function. H475 in ER-β LBD was mutated to alanine (A) using a site directed mutagenesis kit. Transactivation assay was performed as described in panel A in HEK-293 cells with a titration of ER-β ligands in wild type or ER-β H475A. (C). […] The cells were treated 24 hrs after transfection with the indicated ligands and harvested 48 hrs after transfection and firefly luciferase activity was measured and normalized to renilla luciferase. […] The cells were treated 24 hrs after transfection with the indicated ligands and harvested 48 hrs after transfection and firefly luciferase activity was measured and normalized to renilla luciferase. […] The cells were treated 24 hrs after transfection with the indicated ligands and harvested 48 hrs after transfection and firefly luciferase activity was measured and normalized to renilla luciferase. […]

[6] = system: SHP promoter; experiment: SHP promoter-luciferase in HEK-293 cells transfected with FXR and ER-β; format: cell-based; details: FXR and ER-β plasmids, FIG. 12E right panel
Description: FIG. 12 depict the effect of ER-β ligand on PPAR-γ function through ligand binding domain (LBD). (A). HEK-293 cells were transfected with 0.25 μg PPRE-LUC, 5 ng CMV-renilla LUC and the indicated receptors (PPAR-γ and ER-β for the left panel and PPAR-α and ER-β for the right panel). The cells were treated 24 hrs after transfection with the indicated ligands and harvested 48 hrs after transfection and firefly luciferase activity was measured and normalized to renilla luciferase. (B). H475 in ER-β LBD is important for its function. H475 in ER-β LBD was mutated to alanine (A) using a site directed mutagenesis kit. Transactivation assay was performed as described in panel A in HEK-293 cells with a titration of ER-β ligands in wild type or ER-β H475A. (C). […] HEK-293 cells were transfected with 0.25 μg PPRE-LUC, 5 ng CMV-renilla LUC and 50 ng of the indicated receptors (PPAR-γ or PPAR-γ and wild type ER-β or PPAR-γ and ER-β H475A). The cells were treated 24 hrs after transfection with the indicated ligands and harvested 48 hrs after transfection and firefly luciferase activity was measured and normalized to renilla luciferase. (D). […] HepG2 cells were transfected with 0.25 μg PPRE-LUC, 5 ng CMV-renilla LUC, 0.5 μg PGC-1 or vector backbone and 100 ng of the indicated receptors (PPAR-γ or PPAR-γ and wild type ER-β or PPAR-γ and ER-β H475A for top panels and PPAR-α or PPAR-α and ER-β for bottom panel). The cells were treated 24 hrs after transfection with the indicated ligands and harvested 48 hrs after transfection and firefly luciferase activity was measured and normalized to renilla luciferase. (E). SHP-1 is an ER-β specific target gene. HEK-293 cells were transfected with 0.25 μg SHP-LUC, 5 ng CMV-renilla LUC and 50 ng of the indicated receptors (FXR and ER-α for the left panel and FXR and ER-β for the right panel). The cells were treated 24 hrs after transfection with the indicated ligands and harvested 48 hrs after transfection and firefly luciferase activity was measured and normalized to renilla luciferase. […]

ERα ligand binding domain, sequence (P03372 whole entry, looked up, species assumed, the tested form may be a part): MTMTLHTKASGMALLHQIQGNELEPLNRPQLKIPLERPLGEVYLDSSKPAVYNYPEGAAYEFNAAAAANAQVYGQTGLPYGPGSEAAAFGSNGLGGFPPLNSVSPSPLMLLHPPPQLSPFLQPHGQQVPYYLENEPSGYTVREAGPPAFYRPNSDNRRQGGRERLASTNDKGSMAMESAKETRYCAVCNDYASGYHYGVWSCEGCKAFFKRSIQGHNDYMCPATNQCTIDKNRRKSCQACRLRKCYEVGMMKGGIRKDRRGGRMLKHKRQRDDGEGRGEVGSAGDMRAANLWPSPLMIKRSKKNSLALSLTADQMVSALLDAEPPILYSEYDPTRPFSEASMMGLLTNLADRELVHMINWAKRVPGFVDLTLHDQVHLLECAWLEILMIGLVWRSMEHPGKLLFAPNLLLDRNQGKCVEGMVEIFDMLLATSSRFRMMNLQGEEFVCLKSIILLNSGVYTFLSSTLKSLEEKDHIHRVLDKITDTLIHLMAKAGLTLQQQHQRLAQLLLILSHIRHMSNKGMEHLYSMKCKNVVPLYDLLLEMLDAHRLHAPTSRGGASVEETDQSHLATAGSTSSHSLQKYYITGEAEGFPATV

SMILES: O=c1c2c(O)cc(O)cc2c(Br)cn1-c1ccc(O)cc1 [Compound 12u, 4-bromo-6,8-dihydroxy-2-(4-hydroxyphenyl)isoquinolin-1(2H)-one]
- Ki [1]: 32 nM
- Estradiol activity at 100 nM, ER-α [2]: 62%
- body weight ([3]; FIG. 10A): prevented further gains in body weight
- body fat increase (MRI) ([3]; FIG. 10B): reduced
- body weight gain ([4]; 9 weeks, FIG. 11A): did not inhibit body weight gain
- feed consumption ([4]; FIG. 11B): increased the feed consumption
- fat mass (MRI) ([4]; FIG. 11C left panel): completely prevented the increase in fat mass
- lean mass (MRI) ([4]; FIG. 11C right panel): significantly increased lean mass
- WAT weight ([4]; FIG. 11D): completely inhibited the WAT accrued due to OVX
- uterine weight ([4]; FIG. 11D): without affecting uterine weight
- troglitazone-induced PPAR-γ activity [5]: partially inhibited
- SHP activity [6]: neither of the ligands activated SHP
